{"source": "patent US20090318431A1", "about": "“BENZOXAZINONE AND BENZOXAZEPINONE OXAZOLIDINONES AS ANTIBACTERIAL AGENTS” (Pfizer Inc., priority 2006, published 2009)", "assay_type_in_all_cases": "cell-based", "key": {"[1]": {"test_system": "S. aureus UC-76 SA-1", "assay": "in vitro antibacterial activity (MIC), S. aureus", "settings": "Staphylococcus aureus, UC76, strain UC-76 SA-1, lowest concentration preventing macroscopically visible growth", "excerpt": "(§1) The in vitro antibacterial activity of the compounds of the present invention may be assessed by following procedures recommended in (1) National Committee for Clinical Laboratory Standards (January 2003), Methods for dilution antimicrobial tests for bacteria that grow aerobically, Approved Standard (6th ed), M7-A6, NCCLS, Wayne, Pa.; (2) National Committee for Clinical Laboratory Standards (March 2001), Methods for antimicrobial susceptibility testing of anaerobic bacteria, Approved Standard (5th ed), M11-A4, NCCLS, Wayne, Pa.; (3) National Committee for Clinical Laboratory Standards (Jan. 2003), MIC testing supplemental tables, M100-S13 (for use with M7-A6), NCCLS, Wayne, Pa.; and (4) Murray P R, Baron E J, Jorgensen J H, et al. Manual of Clinical Microbiology (8th ed) Washington, D.C.: American Society for Microbiology Press, 2003. The antibacterial activity can be presented in the form of MIC value. The MIC value is the lowest concentration of drug, which prevented macroscopically visible growth under the conditions of the test."}, "[2]": {"test_system": "S. pneumoniae SV1 SP-3", "assay": "in vitro antibacterial activity (MIC), S. pneumoniae", "settings": "Streptococcus pneumoniae, SV1SP3, strain SV1 SP-3, lowest concentration preventing macroscopically visible growth", "excerpt": "as §1"}, "[3]": {"test_system": "E. faecalis MGH-2 EF 1-1", "assay": "in vitro antibacterial activity (MIC), E. faecalis", "settings": "Enterococcus faecalis, MGH2EF11, strain MGH-2 EF 1-1, lowest concentration preventing macroscopically visible growth", "excerpt": "as §1"}}, "data": [{"smiles": "CCC(=O)NC[C@H]1CN(c2cc(F)c3c(c2)CCOC(=O)N3C)C(=O)O1", "note": "[Example 16, N-{[(5S)-3-(9-fluoro-1-methyl-2-oxo-1,2,4,5-tetrahydro-3,1-benzoxazepin-7-yl)-2-oxo-1,3-oxazolidin-5-yl]methyl}propanamide]", "values": [{"measurement": "MIC", "setting": "[1]", "value": 16, "unit": "µg/mL"}, {"measurement": "MIC", "setting": "[2]", "value": 8, "unit": "µg/mL"}, {"measurement": "MIC", "setting": "[3]", "value": 16, "unit": "µg/mL"}]}, {"smiles": "CN1C(=O)OCc2cc(N3C[C@H](C(N)=O)OC3=O)ccc21", "note": "[Example 4, (R)-3-(1-methyl-2-oxo-2,4-dihydro-1H-benzo[d][1,3]oxazin-6-yl)-2-oxooxazolidine-5-carboxamide]", "values": [{"measurement": "MIC", "setting": "[1]", "value": 4, "unit": "µg/mL"}, {"measurement": "MIC", "setting": "[2]", "value": 4, "unit": "µg/mL"}, {"measurement": "MIC", "setting": "[3]", "value": 16, "unit": "µg/mL"}]}, {"smiles": "CN1C(=O)OCc2cc(N3C[C@H](Cn4ccnn4)OC3=O)ccc21", "note": "[Example 7, (R)-6-(5-((1H-1,2,3-triazol-1-yl)methyl)-2-oxooxazolidin-3-yl)-1-methyl-1H-benzo[d][1,3]oxazin-2(4H)-one]", "values": [{"measurement": "MIC", "setting": "[1]", "value": 16, "unit": "µg/mL"}, {"measurement": "MIC", "setting": "[2]", "value": 16, "unit": "µg/mL"}, {"measurement": "MIC", "setting": "[3]", "value": 32, "unit": "µg/mL"}]}, {"smiles": "CN1C(=O)OCc2cc(N3C[C@H](CNC(=O)OCF)OC3=O)ccc21", "note": "[Example 6, (S)-Fluoromethyl (3-(1-methyl-2-oxo-2,4-dihydro-1H-benzo[d][1,3]oxazin-6-yl)-2-oxooxazolidin-5-yl)methylcarbamate]", "values": [{"measurement": "MIC", "setting": "[1]", "value": 8, "unit": "µg/mL"}, {"measurement": "MIC", "setting": "[2]", "value": 2, "unit": "µg/mL"}, {"measurement": "MIC", "setting": "[3]", "value": 8, "unit": "µg/mL"}]}, {"smiles": "CC(=O)NC[C@H]1CN(c2ccc3c(c2)CCOC(=O)N3C)C(=O)O1", "note": "[Example 20, N-{[(5S)-3-(1-methyl-2-oxo-1,2,4,5-tetrahydro-3,1-benzoxazepin-7-yl)-2-oxo-1,3-oxazolidin-5-yl]methyl}acetamide]", "values": [{"measurement": "MIC", "setting": "[1]", "value": 8, "unit": "µg/mL"}, {"measurement": "MIC", "setting": "[2]", "value": 4, "unit": "µg/mL"}, {"measurement": "MIC", "setting": "[3]", "value": 8, "unit": "µg/mL"}]}, {"smiles": "COC(=O)NC[C@H]1CN(c2ccc3c(c2)COC(=O)N3C)C(=O)O1", "note": "[Example 3, (S)-methyl (3-(1-methyl-2-oxo-2,4-dihydro-1H-benzo[d][1,3]oxazin-6-yl)-2-oxooxazolidin-5-yl)methylcarbamate]", "values": [{"measurement": "MIC", "setting": "[1]", "value": 4, "unit": "µg/mL"}, {"measurement": "MIC", "setting": "[2]", "value": 4, "unit": "µg/mL"}, {"measurement": "MIC", "setting": "[3]", "value": 4, "unit": "µg/mL"}]}, {"smiles": "CC(=O)NC[C@H]1CN(c2cc(F)c3c(c2)COC(=O)N3C)C(=O)O1", "note": "[Example 10, (S)—N-((3-(8-fluoro-1-methyl-2-oxo-2,4-dihydro-1H-benzo[d][1,3]oxazin-6-yl)-2-oxooxazolidin-5-yl)methyl)acetamide]", "values": [{"measurement": "MIC", "setting": "[1]", "value": 2, "unit": "µg/mL"}, {"measurement": "MIC", "setting": "[2]", "value": 2, "unit": "µg/mL"}, {"measurement": "MIC", "setting": "[3]", "value": 4, "unit": "µg/mL"}]}, {"smiles": "CNC(=O)[C@H]1CN(c2cc(F)c3c(c2)COC(=O)N3C)C(=O)O1", "note": "[Example 9, (R)-3-(8-fluoro-1-methyl-2-oxo-2,4-dihydro-1H-benzo[d][1,3]oxazin-6-yl)-N-methyl-2-oxooxazolidine-5-carboxamide]", "values": [{"measurement": "MIC", "setting": "[1]", "value": 8, "unit": "µg/mL"}, {"measurement": "MIC", "setting": "[2]", "value": 8, "unit": "µg/mL"}, {"measurement": "MIC", "setting": "[3]", "value": 8, "unit": "µg/mL"}]}, {"smiles": "CCC(=O)NC[C@H]1CN(c2ccc3c(c2)CCOC(=O)N3C)C(=O)O1", "note": "[Example 21, N-{[(5S)-3-(1-methyl-2-oxo-1,2,4,5-tetrahydro-3,1-benzoxazepin-7-yl)-2-oxo-1,3-oxazolidin-5-yl]methyl}propanamide]", "values": [{"measurement": "MIC", "setting": "[1]", "value": 8, "unit": "µg/mL"}, {"measurement": "MIC", "setting": "[2]", "value": 8, "unit": "µg/mL"}, {"measurement": "MIC", "setting": "[3]", "value": 8, "unit": "µg/mL"}]}, {"smiles": "CN1C(=O)OCc2cc(N3C[C@H](C(N)=O)OC3=O)cc(F)c21", "note": "[Example 8, (R)-3-(8-fluoro-1-methyl-2-oxo-2,4-dihydro-1H-benzo[d][1,3]oxazin-6-yl)-2-oxooxazolidine-5-carboxamide]", "values": [{"measurement": "MIC", "setting": "[1]", "value": 8, "unit": "µg/mL"}, {"measurement": "MIC", "setting": "[2]", "value": 16, "unit": "µg/mL"}, {"measurement": "MIC", "setting": "[3]", "value": 8, "unit": "µg/mL"}]}, {"smiles": "CNC(=O)[C@H]1CN(c2ccc3c(c2)CCOC(=O)N3C)C(=O)O1", "note": "[Example 19, (5R)—N-methyl-3-(1-methyl-2-oxo-1,2,4,5-tetrahydro-3,1-benzoxazepin-7-yl)-2-oxo-1,3-oxazolidine-5-carboxamide]", "values": [{"measurement": "MIC", "setting": "[1]", "value": 16, "unit": "µg/mL"}, {"measurement": "MIC", "setting": "[2]", "value": 32, "unit": "µg/mL"}, {"measurement": "MIC", "setting": "[3]", "value": 32, "unit": "µg/mL"}]}, {"smiles": "CN1C(=O)OCCc2cc(N3C[C@H](C(N)=O)OC3=O)ccc21", "note": "[Example 18, (5R)-3-(1-methyl-2-oxo-1,2,4,5-tetrahydro-3,1-benzoxazepin-7-yl)-2-oxo-1,3-oxazolidine-5-carboxamide]", "values": [{"measurement": "MIC", "setting": "[1]", "value": 16, "unit": "µg/mL"}, {"measurement": "MIC", "setting": "[2]", "value": 32, "unit": "µg/mL"}, {"measurement": "MIC", "setting": "[3]", "value": 32, "unit": "µg/mL"}]}, {"smiles": "COC(=O)NC[C@H]1CN(c2cc(F)c3c(c2)COC(=O)N3C)C(=O)O1", "note": "[Example 12, (S)-methyl (3-(8-fluoro-1-methyl-2-oxo-2,4-dihydro-1H-benzo[d][1,3]oxazin-6-yl)-2-oxooxazolidin-5-yl)methylcarbamate]", "values": [{"measurement": "MIC", "setting": "[1]", "value": 4, "unit": "µg/mL"}, {"measurement": "MIC", "setting": "[2]", "value": 4, "unit": "µg/mL"}, {"measurement": "MIC", "setting": "[3]", "value": 8, "unit": "µg/mL"}]}, {"smiles": "CCC(=O)NC[C@H]1CN(c2ccc3c(c2)COC(=O)N3C)C(=O)O1", "note": "[Example 2, (S)—N-((3-(1-methyl-2-oxo-2,4-dihydro-1H-benzo[d][1,3]oxazin-6-yl)-2-oxooxazolidin-5-yl)methyl)propionamide]", "values": [{"measurement": "MIC", "setting": "[1]", "value": 8, "unit": "µg/mL"}, {"measurement": "MIC", "setting": "[2]", "value": 4, "unit": "µg/mL"}, {"measurement": "MIC", "setting": "[3]", "value": 8, "unit": "µg/mL"}]}, {"smiles": "CCC(=O)NC[C@H]1CN(c2cc(F)c3c(c2)COC(=O)N3C)C(=O)O1", "note": "[Example 11, (S)—N-((3-(8-fluoro-1-methyl-2-oxo-2,4-dihydro-1H-benzo[d][1,3]oxazin-6-yl)-2-oxooxazolidin-5-yl)methyl)propionamide]", "values": [{"measurement": "MIC", "setting": "[1]", "value": 4, "unit": "µg/mL"}, {"measurement": "MIC", "setting": "[2]", "value": 4, "unit": "µg/mL"}, {"measurement": "MIC", "setting": "[3]", "value": 4, "unit": "µg/mL"}]}, {"smiles": "CC(=O)NC[C@H]1CN(c2ccc3c(c2)COC(=O)N3C)C(=O)O1", "note": "[Example 1, (S)—N-((3-(1-methyl-2-oxo-2,4-dihydro-1H-benzo[d][1,3]oxazin-6-yl)-2-oxooxazolidin-5-yl)methyl)acetamide]", "values": [{"measurement": "MIC", "setting": "[1]", "value": 4, "unit": "µg/mL"}, {"measurement": "MIC", "setting": "[2]", "value": 2, "unit": "µg/mL"}, {"measurement": "MIC", "setting": "[3]", "value": 4, "unit": "µg/mL"}]}, {"smiles": "CC(=O)NC[C@H]1CN(c2cc(F)c3c(c2)CCOC(=O)N3C)C(=O)O1", "note": "[Example 15, N-{[(SS)-3-(9-fluoro-1-methyl-2-oxo-1,2,4,5-tetrahydro-3,1-benzoxazepin-7-yl)-2-oxo-1,3-oxazolidin-5-yl]methyl}acetamide]", "values": [{"measurement": "MIC", "setting": "[1]", "value": 8, "unit": "µg/mL"}, {"measurement": "MIC", "setting": "[2]", "value": 4, "unit": "µg/mL"}, {"measurement": "MIC", "setting": "[3]", "value": 8, "unit": "µg/mL"}]}, {"smiles": "COC(=O)NC[C@H]1CN(c2ccc3c(c2)CCOC(=O)N3C)C(=O)O1", "note": "[Example 22, methyl [(5S)-3-(1-methyl-2-oxo-1,2,4,5-tetrahydro-3,1-benzoxazepin-7-yl)-2-oxo-1,3-oxazolidin-5-yl]methylcarbamate]", "values": [{"measurement": "MIC", "setting": "[1]", "value": 8, "unit": "µg/mL"}, {"measurement": "MIC", "setting": "[2]", "value": 8, "unit": "µg/mL"}, {"measurement": "MIC", "setting": "[3]", "value": 8, "unit": "µg/mL"}]}, {"smiles": "CNC(=O)[C@H]1CN(c2ccc3c(c2)COC(=O)N3C)C(=O)O1", "note": "[Example 5, (R)—N-methyl-3-(1-methyl-2-oxo-2,4-dihydro-1H-benzo[d][1,3]oxazin-6-yl)-2-oxooxazolidine-5-carboxamide]", "values": [{"measurement": "MIC", "setting": "[1]", "value": 4, "unit": "µg/mL"}, {"measurement": "MIC", "setting": "[2]", "value": 4, "unit": "µg/mL"}, {"measurement": "MIC", "setting": "[3]", "value": 16, "unit": "µg/mL"}]}, {"smiles": "COC(=O)NC[C@H]1CN(c2cc(F)c3c(c2)CCOC(=O)N3C)C(=O)O1", "note": "[Example 17, methyl [(5S)-3-(9-fluoro-1-methyl-2-oxo-1,2,4,5-tetrahydro-3,1-benzoxazepin-7-yl)-2-oxo-1,3-oxazolidin-5-yl]methylcarbamate]", "values": [{"measurement": "MIC", "setting": "[1]", "value": 16, "unit": "µg/mL"}, {"measurement": "MIC", "setting": "[2]", "value": 8, "unit": "µg/mL"}, {"measurement": "MIC", "setting": "[3]", "value": 16, "unit": "µg/mL"}]}]}
